Results reported in US8546343B2, “Aminoglycoside antibiotics targeting bacterial 16S ribosomal RNA” (Eidgenoessische Technische Hochschule Zurich, priority 2007, dated 2013).
≈ marks a conversion by molar mass, not a printed value.

What was measured:
[1] = test system: M. smegmatis ΔrrnB (bacterial ribosomes); test: MIC, recombinant M. smegmatis with bacterial (wild-type) ribosomes; type: cell-based, Mycobacterium smegmatis; details: 72 h at 37° C.
Method in brief: (§1)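 M. smegmatis single-rRNA-operon strain carrying the indicated 16S rRNA decoding-site alleles, introduced into the chromosomal operon and confirmed by sequencing. Colony-purified cultures were grown in LB with 0.05% Tween 80 and started at OD600 0.025. MIC was read in microtiter format against twofold drug dilutions.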

[2] = test system: M. smegmatis ΔrrnB 1408G (16S rRNA position 1408 G, eukaryotic cytosolic ribosomes); test: MIC, recombinant M. smegmatis with mutant ribosomes 1408G; type: cell-based, Mycobacterium smegmatis; details: M. smegmatis ΔrrnB 1408G mutant ribosomes; 72 h at 37° C.
Method in brief: as §1

[3] = test system: M. smegmatis ΔrrnB 1491A (16S rRNA position 1491 A, eukaryotic cytosolic ribosomes); test: MIC, recombinant M. smegmatis with mutant ribosomes 1491A; type: cell-based, Mycobacterium smegmatis; details: M. smegmatis ΔrrnB 1491A mutant ribosomes; 72 h at 37° C.
Method in brief: as §1

[4] = test system: M. smegmatis ΔrrnB 1491C (16S rRNA position 1491 C, eukaryotic mitochondrial ribosome); test: MIC, recombinant M. smegmatis with mutant ribosomes 1491C; type: cell-based, Mycobacterium smegmatis; details: M. smegmatis ΔrrnB 1491C mutant ribosomes; 72 h at 37° C.
Method in brief: as §1

[5] = test system: AG011 Staph. aureus clinical isolate; test: Standard MIC assay, AG011; type: cell-based, Staphylococcus aureus
Description: (§2) Selected compounds of the present invention were tested for antibiotic susceptibility using clinical isolates of Staphylococci, Enterococci and Escherichia coli as well as strains carrying defined resistance determinants and compared to well known antibiotics of the state of the art. Drug susceptibility was determined in standard MIC assays, i.e. by determination of the minimal drug concentration required to inhibit bacterial growth in vitro.

[6] = test system: AG013 Staph. epi. clinical isolate; test: Standard MIC assay, AG013; type: cell-based, Staphylococcus epidermidis
Description: as §2

[7] = test system: AG014 Staph. epi. clinical isolate; test: Standard MIC assay, AG014; type: cell-based, Staphylococcus epidermidis
Description: as §2

AG016 S. aureus BM3002 = test: Standard MIC assay, AG016; type: cell-based, Staphylococcus aureus
Description: as §2

[8] = test system: AG015 S. aureus BM3002 (ANT4′); test: Standard MIC assay, AG015; type: cell-based, Staphylococcus aureus; details: for Minimal inhibitory concentrations AG015: S. aureus BM3002 (ANT4′)
Description: as §2

AG017 E. faecalis JH2-2 = test: Standard MIC assay, AG017; type: cell-based, Enterococcus faecalis
Description: as §2

[9] = test system: AG019 E. faecalis JH2-2 (APH2″ AAC6′); test: Standard MIC assay, AG019; type: cell-based, Enterococcus faecalis; details: for Minimal inhibitory concentrations AG019: E. faecalis JH2-2 (APH2″ AAC6′)
Description: as §2

[10] = test system: AG001 E. coli clinical isolate; test: Standard MIC assay, AG001; type: cell-based, Escherichia coli
Description: as §2

[11] = test system: AG004 E. coli clinical isolate; test: Standard MIC assay, AG004; type: cell-based, Escherichia coli
Description: as §2

AG006 E. coli BM13 = test: Standard MIC assay, AG006; type: cell-based, Escherichia coli
Description: as §2

[12] = test system: AG007 E. coli BM13 (AAC3); test: Standard MIC assay, AG007; type: cell-based, Escherichia coli; details: for Minimal inhibitory concentrations AG007: E. coli BM13 (AAC3)
Description: as §2

[13] = test system: AG008 E. coli BM13 (ANT2″); test: Standard MIC assay, AG008; type: cell-based, Escherichia coli; details: E. coli BM13 (ANT2″)
Description: as §2

[14] = test system: AG009 E. coli BM13 AAC(6′)-1B; test: Standard MIC assay, AG009; type: cell-based, Escherichia coli; details: for Minimal inhibitory concentrations AG009: E. coli BM13 AAC(6′)-1B
Description: as §2

[15] = test system: AG002 E. coli clinical isolate; test: Standard MIC assay, AG002; type: cell-based, Escherichia coli
Description: as §2

[16] = test system: AG003 E. coli clinical isolate; test: Standard MIC assay, AG003; type: cell-based, Escherichia coli
Description: as §2

Compound	minimal inhibitory concentrations ΔrrnB [1]	minimal inhibitory concentrations ΔrrnB 1408G [2]	minimal inhibitory concentrations ΔrrnB 1491A [3]	minimal inhibitory concentrations ΔrrnB 1491C [4]	Minimal inhibitory concentrations AG011 [5]	Minimal inhibitory concentrations AG013 [6]	Minimal inhibitory concentrations AG014 [7]	Minimal inhibitory concentrations AG016 (AG016 S. aureus BM3002)	Minimal inhibitory concentrations AG015 [8]	Minimal inhibitory concentrations AG017 (AG017 E. faecalis JH2-2)	Minimal inhibitory concentrations AG019 [9]	Minimal inhibitory concentrations AG001 [10]	Minimal inhibitory concentrations AG004 [11]	Minimal inhibitory concentrations AG006 (AG006 E. coli BM13)	Minimal inhibitory concentrations AG007 [12]	Minimal inhibitory concentrations AG008 [13]	Minimal inhibitory concentrations AG009 [14]	Minimal inhibitory concentrations AG002 [15]	Minimal inhibitory concentrations AG003 [16]	further results
NC[C@@H]1O[C@H](O[C@H]2[C@@H](O)[C@H](O[C@@H]3[C@@H](O)[C@H](N)C[C@H](N)[C@H]3O[C@H]3O[C@@H]4CO[C@@H](c5ccc(Cl)cc5)O[C@H]4[C@H](O)[C@H]3N)O[C@@H]2CO)[C@H](N)[C@@H](O)[C@@H]1O [Compound 5.8, 4′,6′-O-p-Chlorobenzylideneparomomycin]	4 µg/mL	>512 µg/mL	>512 µg/mL	>512 µg/mL	4 to 8 µg/mL	8 µg/mL (≈ 10.8 µM)	8 to 16 µg/mL	8 µg/mL (≈ 10.8 µM)	16 µg/mL (≈ 21.7 µM)	16 to 32 µg/mL	64 µg/mL (≈ 86.7 µM)	32 µg/mL (≈ 43.3 µM)	16 to 32 µg/mL	64 µg/mL (≈ 86.7 µM)	64 µg/mL (≈ 86.7 µM)	64 µg/mL (≈ 86.7 µM)	64 µg/mL (≈ 86.7 µM)			
NC[C@@H]1O[C@H](O[C@H]2[C@@H](O)[C@H](O[C@@H]3[C@@H](O)[C@H](N)C[C@H](N)[C@H]3O[C@H]3O[C@@H]4CO[C@@H](c5ccc6ccccc6c5)O[C@H]4[C@H](O)[C@H]3N)O[C@@H]2CO)[C@H](N)[C@@H](O)[C@@H]1O [Compound 5.20, 4′,6′-O-2-Naphthylideneparomomycin]	2 to 4 µg/mL	>512 µg/mL	512 µg/mL	512 µg/mL	1 to 2 µg/mL	1 µg/mL (≈ 1.33 µM)	1 µg/mL (≈ 1.33 µM)	4 µg/mL (≈ 5.31 µM)	8 to 16 µg/mL	8 to 16 µg/mL	8 to 16 µg/mL	8 µg/mL (≈ 10.6 µM)	8 µg/mL (≈ 10.6 µM)	8 to 16 µg/mL	16 to 32 µg/mL	16 µg/mL (≈ 21.2 µM)	16 to 32 µg/mL			
NC[C@@H]1O[C@H](O[C@H]2[C@@H](O)[C@H](O[C@@H]3[C@@H](O)[C@H](N)C[C@H](N)[C@H]3O[C@H]3O[C@H](CO)[C@@H](OCCCc4ccccc4)[C@H](O)[C@H]3N)O[C@@H]2CO)[C@H](N)[C@@H](O)[C@@H]1O [Compound 19c, 4′-p-(3-phenylpropyl)paromomycin]	8 to 16 µg/mL	≧512 μg/ml	≧512 μg/ml	512 µg/mL		4 to 8 µg/mL	2 µg/mL (≈ 2.73 µM)	4 µg/mL (≈ 5.45 µM)	16 µg/mL (≈ 21.8 µM)	8 to 16 µg/mL	32 µg/mL (≈ 43.6 µM)	16 to 32 µg/mL	16 µg/mL (≈ 21.8 µM)	8 to 16 µg/mL	8 to 16 µg/mL	8 to 16 µg/mL	32 µg/mL (≈ 43.6 µM)	16 µg/mL (≈ 21.8 µM)	8 to 16 µg/mL	
NC[C@H]1O[C@H](O[C@H]2[C@H](O)[C@@H](O[C@H]3O[C@H](CO)[C@@H](O)[C@H](N)[C@H]3O)[C@H](N)C[C@@H]2N)[C@H](O)[C@@H](O)[C@@H]1O [Kanamycin A, kanamycin A, reference compound]					16 µg/mL (≈ 33 µM)	≧256 mg/l	≧256 mg/l	4 to 8 µg/mL	256 µg/mL (≈ 528 µM)	32 to 64 µg/mL	>256 µg/mL	16 µg/mL (≈ 33 µM)	64 µg/mL (≈ 132 µM)	8 µg/mL (≈ 16.5 µM)	8 µg/mL (≈ 16.5 µM)	128 µg/mL (≈ 264 µM)	>256 µg/mL	16 µg/mL (≈ 33 µM)	32 µg/mL (≈ 66 µM)	
NC[C@H]1O[C@H](O[C@H]2[C@H](O)[C@@H](O[C@H]3O[C@H](CO)[C@@H](O)[C@H](N)[C@H]3O)[C@H](N)C[C@@H]2N)[C@H](N)C[C@@H]1O [Tobramycin, reference compound]																				MIC ([5]; Staphylococcus aureus, read-out: Minimal inhibitory concentrations AG011): 8 µg/mL (≈ 17.1 µM); MIC ([6]; Staphylococcus epidermidis, read-out: Minimal inhibitory concentrations AG013): ≥ 256 µg/mL; MIC ([7]; Staphylococcus epidermidis, read-out: Minimal inhibitory concentrations AG014): 256 µg/mL (≈ 548 µM); MIC (AG016 S. aureus BM3002; Staphylococcus aureus, read-out: Minimal inhibitory concentrations AG016): 0.5 to 1 µg/mL (≈ 1.07 to 2.14 µM); MIC ([8]; Staphylococcus aureus, read-out: Minimal inhibitory concentrations AG015): ≥ 256 µg/mL; MIC (AG017 E. faecalis JH2-2; Enterococcus faecalis, read-out: Minimal inhibitory concentrations AG017): 16 to 32 µg/mL (≈ 34.2 to 68.4 µM); MIC ([9]; Enterococcus faecalis, read-out: Minimal inhibitory concentrations AG019): > 256 µg/mL; MIC ([10]; Escherichia coli, read-out: Minimal inhibitory concentrations AG001): 4 µg/mL (≈ 8.56 µM); MIC ([15]; Escherichia coli, read-out: Minimal inhibitory concentrations AG002): 4 µg/mL (≈ 8.56 µM); MIC ([16]; Escherichia coli, read-out: Minimal inhibitory concentrations AG003): 32 µg/mL (≈ 68.4 µM); MIC ([11]; Escherichia coli, read-out: Minimal inhibitory concentrations AG004): 64 µg/mL (≈ 137 µM); MIC (AG006 E. coli BM13; Escherichia coli, read-out: Minimal inhibitory concentrations AG006): 2 µg/mL (≈ 4.28 µM); MIC ([12]; Escherichia coli, read-out: Minimal inhibitory concentrations AG007): 8 µg/mL (≈ 17.1 µM); MIC ([14]; Escherichia coli, read-out: Minimal inhibitory concentrations AG009): 128 to 256 µg/mL (≈ 274 to 548 µM)
Gentamicin [reference compound]					4 µg/mL	≧256 mg/l	≧256 mg/l	1 µg/mL	4 µg/mL	8 to 16 µg/mL	>256 µg/mL	4 µg/mL	>256 µg/mL	4 µg/mL	128 µg/mL	64 µg/mL	32 µg/mL	2 µg/mL	≧256 mg/l	
